The series in a line: Processing of acephate melt in oxygen free atmosphere: degradation. It is filed as physicochemical. As for the experimental part: In some embodiments, the acephate-containing composition can be processed for more than 30 minutes without substantially any detectable degradation.

For `COP(=O)(NC(C)=O)SC` (centres unmarked) [acephate], the “reduction of the acephate stability during storage” value (after processing in molten state at 90° C. to 100° C. for 15 to 30 minutes under an effectively oxygen free atmosphere) is recorded as “without any reduction”. Further, the “degradation of the acephate processed in a molten state” value (molten state at 90° C. to 100° C. for 15 minutes to 30 minutes under an effectively oxygen free atmosphere) is given as “without substantial or detectable degradation”.

Values taken from patent US20080064663A1, “Melt processing of phosphoroamido(di)thioate insecticides” (priority 2006, published 2008).
